In ChEMBL document CHEMBL1201862, “PubChem BioAssay data set” (2004):
Activity calls are given as the source filed them.

Tests used:
[1] = Luminescence Cell-Based Dose Retest to Confirm Inhibitors of Cancer Stem Cells. [Related pubchem assays (depositor defined):AID2717, AID2721]; type: functional; conditions: Homo sapiens
[2] = target: T1, Corticotropin-releasing factor receptor 2/Corticotropin-releasing factor-binding protein (Homo sapiens, UniProt P24387+Q13324); experiment: Dose Response confirmation of uHTS hits for small molecule antagonists of the CRF-binding protein and CRF-R2 receptor complex.; type: functional; conditions: read-out: IC50_Mean
T1 sequence (Q13324 whole entry): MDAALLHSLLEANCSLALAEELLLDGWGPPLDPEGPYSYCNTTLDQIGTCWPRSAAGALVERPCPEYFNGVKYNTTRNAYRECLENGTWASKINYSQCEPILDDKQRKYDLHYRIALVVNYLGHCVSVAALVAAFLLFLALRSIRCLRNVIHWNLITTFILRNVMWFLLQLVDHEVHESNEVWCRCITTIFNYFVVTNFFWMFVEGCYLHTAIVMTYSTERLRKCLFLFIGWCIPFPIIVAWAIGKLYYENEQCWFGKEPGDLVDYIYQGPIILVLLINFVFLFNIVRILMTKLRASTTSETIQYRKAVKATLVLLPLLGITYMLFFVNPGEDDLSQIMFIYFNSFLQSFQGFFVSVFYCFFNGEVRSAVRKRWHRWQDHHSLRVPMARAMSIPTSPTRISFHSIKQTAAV
T1 sequence (P24387 whole entry): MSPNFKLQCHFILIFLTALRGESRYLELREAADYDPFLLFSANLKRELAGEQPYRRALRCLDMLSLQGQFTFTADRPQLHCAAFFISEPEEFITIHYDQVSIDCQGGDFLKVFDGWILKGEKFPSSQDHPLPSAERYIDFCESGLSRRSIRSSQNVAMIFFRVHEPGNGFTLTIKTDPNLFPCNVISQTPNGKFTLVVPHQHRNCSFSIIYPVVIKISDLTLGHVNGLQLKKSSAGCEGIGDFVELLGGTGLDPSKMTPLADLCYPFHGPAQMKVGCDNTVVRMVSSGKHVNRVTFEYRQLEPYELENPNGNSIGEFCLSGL

[3] = target: T1, Corticotropin-releasing factor receptor 2/Corticotropin-releasing factor-binding protein; experiment: activators of CRF receptor 2 with binding protein – uHTS hits, confirmation (AID 602473); type: functional; conditions: read-out: EC50_Mean
[4] = CRF-BP/CRF-R2 complex antagonists, dose response, cell-based, uHTS hits, 384-well (AID 651639); type: functional, Homo sapiens; conditions: read-out: IC50_Mean
[5] = microbe, parasite or virus in culture; type: functional; conditions: Mycobacterium tuberculosis
[6] = AlphaScreen signal interference compounds, dose response, artefact control for ARNT-TACC3 interaction inhibitor project, biochemical, luminescence, cherry-pick (AID 651705); type: functional;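 further: AlphaScreen bead proximity signal that flags compounds interfering with the detection technology; potency reflects signal decrease which marks the compound as an assay artifact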
Beta-galactosidase = Beta-galactosidase (Escherichia coli, UniProt Q8VNN2); experiment: Dose response counterscreen for EBI2 assay utilizing the enzyme, b-galactosidase.; type: functional
[7] = target: Ras and Rab interactor 1/Tyrosine-protein kinase ABL1 (Homo sapiens, UniProt P00519+Q13671); type: functional;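 further: biochemical TR-FRET dose-response test measuring inhibition of binding between Rin1 and Abl proteins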
INS1 = experiment: beta cell apoptosis inhibitors, cytokine rescue, dose response, luminescence, retest (AID 449756); type: functional, cell-based; conditions: Rattus norvegicus;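 further: cell death triggered by IL-1 beta plus TNF-alpha plus IFN-gamma mixture; protective hits raise ATP signal compared with cytokine alone wells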
Protein Wnt-3a = Protein Wnt-3a (Mus musculus, UniProt P27467); experiment: Wnt3a-driven reporter signaling inhibition, dose response, selectivity assay for Gli-SUFU antagonist project, Wnt-LIGHT cells, luminescence (AID 651570); type: functional; conditions: read-out: IC50_Mean;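 further: Wnt-LIGHT reporter cells stimulated with conditioned medium from Wnt3a-producing cells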
BJ [8] = experiment: cytotoxicity toward BJ-TERT fibroblasts, dose response, cell-based, RAS-independent, luminescence (AID 1933); type: functional; conditions: Homo sapiens
BJ [9] = experiment: cells; type: functional, cell-based; conditions: Homo sapiens
BJ [10] = experiment: cytotoxicity toward BJ-TERT-LT-ST fibroblasts, dose response, cell-based, RAS-independent, luminescence (AID 1935); type: functional; conditions: Homo sapiens;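 further: BJ fibroblasts immortalized with TERT plus LT and ST oncogenes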
[11] = cytotoxicity toward DRD oncogenic fibroblasts, dose response, cell-based, non-viral oncogenic, luminescence (AID 1934); type: functional; conditions: Homo sapiens
[12] = HEp-2 cell cytotoxicity, dose response, cytotoxicity control for RSV inhibitor project, HTS (AID 2410); type: functional; conditions: human respiratory syncytial virus
[13] = Luminescence Cell-Based Dose Response HTS to Identify Inhibitors of 5'UTR Stem-Loop Driven Prion Protein mRNA Translation in H4 Neuroglioblastoma Cells. [Related pubchem assays: 1827 (Project Summary), 1813 (Primary HTS)]; type: functional
[14] = inhibitors of SNCA 5'UTR-driven reporter translation, confirmation, H4 neuroglioma cells, luminescence (AID 1988); type: functional, cell-based
Vero [15] = experiment: cells; type: functional, cell-based; conditions: Chlorocebus sabaeus
[16] = Shn3 3'UTR reporter inhibitors, dose response, cell-based, Clone20 osteoblasts, firefly luciferase, cherry-picked (AID 624132); type: functional;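 further: firefly luciferase luminescence from reporter carrying the Shn3 3'UTR in osteoblasts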
[17] = HepG2 cell cytotoxicity, dose response, cytotoxicity control for Shn3 inhibitor project, CellTiter-Glo, cherry-picked (AID 624134); type: functional, cell-based
[18] = control 3'UTR Renilla luciferase suppression, dose response, counter-screen for Shn3 inhibitor project, cell-based, Clone20-Shn3RL, cherry-picked (AID 624133); type: functional
Vero [19] = experiment: cells; type: functional; conditions: Chlorocebus sabaeus

Chain of Protein Wnt-3a (P27467 whole entry): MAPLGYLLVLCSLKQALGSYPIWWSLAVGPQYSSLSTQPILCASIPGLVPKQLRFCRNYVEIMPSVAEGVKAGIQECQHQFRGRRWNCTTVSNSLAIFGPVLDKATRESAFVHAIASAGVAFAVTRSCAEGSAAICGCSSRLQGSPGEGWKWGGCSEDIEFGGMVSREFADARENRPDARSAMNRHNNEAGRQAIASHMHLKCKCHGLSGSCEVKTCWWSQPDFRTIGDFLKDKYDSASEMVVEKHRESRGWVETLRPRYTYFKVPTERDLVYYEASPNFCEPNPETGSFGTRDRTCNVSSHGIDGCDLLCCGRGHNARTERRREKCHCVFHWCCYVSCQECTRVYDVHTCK
Chain of Ras and Rab interactor 1/Tyrosine-protein kinase ABL1 (P00519 whole entry): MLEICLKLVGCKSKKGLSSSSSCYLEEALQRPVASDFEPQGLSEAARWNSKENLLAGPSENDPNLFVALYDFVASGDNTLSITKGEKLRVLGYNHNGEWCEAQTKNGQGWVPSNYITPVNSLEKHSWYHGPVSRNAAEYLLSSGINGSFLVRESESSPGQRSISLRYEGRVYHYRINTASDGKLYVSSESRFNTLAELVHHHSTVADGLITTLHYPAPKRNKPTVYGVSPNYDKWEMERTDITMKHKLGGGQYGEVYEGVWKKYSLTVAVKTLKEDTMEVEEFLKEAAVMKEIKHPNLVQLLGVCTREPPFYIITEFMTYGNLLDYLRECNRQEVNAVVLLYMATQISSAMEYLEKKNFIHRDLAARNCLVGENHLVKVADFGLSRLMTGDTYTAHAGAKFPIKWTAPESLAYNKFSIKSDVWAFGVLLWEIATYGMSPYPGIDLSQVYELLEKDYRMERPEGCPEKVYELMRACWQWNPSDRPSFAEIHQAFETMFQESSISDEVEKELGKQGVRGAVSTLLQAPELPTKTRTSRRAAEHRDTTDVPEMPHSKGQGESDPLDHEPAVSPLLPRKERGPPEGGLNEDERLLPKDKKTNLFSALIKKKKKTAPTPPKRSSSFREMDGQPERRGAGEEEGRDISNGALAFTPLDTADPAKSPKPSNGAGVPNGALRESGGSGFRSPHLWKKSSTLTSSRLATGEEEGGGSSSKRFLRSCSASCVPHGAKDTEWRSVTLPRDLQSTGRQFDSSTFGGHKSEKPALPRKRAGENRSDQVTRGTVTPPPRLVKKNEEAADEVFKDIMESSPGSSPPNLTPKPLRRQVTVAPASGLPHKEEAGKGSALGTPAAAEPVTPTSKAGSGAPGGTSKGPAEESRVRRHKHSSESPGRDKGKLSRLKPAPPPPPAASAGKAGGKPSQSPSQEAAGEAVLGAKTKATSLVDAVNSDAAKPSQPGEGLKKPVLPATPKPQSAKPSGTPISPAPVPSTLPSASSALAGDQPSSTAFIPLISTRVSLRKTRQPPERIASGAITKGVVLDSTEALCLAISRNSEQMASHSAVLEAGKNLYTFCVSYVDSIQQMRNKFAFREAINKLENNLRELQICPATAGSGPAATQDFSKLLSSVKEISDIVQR
Chain of Ras and Rab interactor 1/Tyrosine-protein kinase ABL1 (Q13671 whole entry): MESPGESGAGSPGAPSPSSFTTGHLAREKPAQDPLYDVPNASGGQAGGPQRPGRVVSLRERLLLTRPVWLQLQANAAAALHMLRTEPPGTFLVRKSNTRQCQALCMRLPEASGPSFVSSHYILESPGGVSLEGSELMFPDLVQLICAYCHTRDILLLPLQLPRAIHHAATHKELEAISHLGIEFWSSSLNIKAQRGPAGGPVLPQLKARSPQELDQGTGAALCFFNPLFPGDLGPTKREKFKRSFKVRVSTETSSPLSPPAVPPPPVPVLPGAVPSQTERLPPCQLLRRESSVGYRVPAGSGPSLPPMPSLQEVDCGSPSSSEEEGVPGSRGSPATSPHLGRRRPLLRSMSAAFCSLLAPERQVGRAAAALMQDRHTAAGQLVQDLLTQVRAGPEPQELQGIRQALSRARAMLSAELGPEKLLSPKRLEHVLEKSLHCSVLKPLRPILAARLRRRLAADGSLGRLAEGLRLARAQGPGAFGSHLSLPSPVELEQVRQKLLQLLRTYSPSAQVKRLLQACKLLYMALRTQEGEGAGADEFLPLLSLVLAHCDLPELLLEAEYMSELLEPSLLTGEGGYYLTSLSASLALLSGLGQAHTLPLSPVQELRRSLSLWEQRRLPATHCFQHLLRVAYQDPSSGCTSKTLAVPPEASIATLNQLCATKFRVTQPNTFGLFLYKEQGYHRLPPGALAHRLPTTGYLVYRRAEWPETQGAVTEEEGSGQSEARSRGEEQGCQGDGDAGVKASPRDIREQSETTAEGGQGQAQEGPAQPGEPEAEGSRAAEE
Chain of Beta-galactosidase (Q8VNN2 whole entry): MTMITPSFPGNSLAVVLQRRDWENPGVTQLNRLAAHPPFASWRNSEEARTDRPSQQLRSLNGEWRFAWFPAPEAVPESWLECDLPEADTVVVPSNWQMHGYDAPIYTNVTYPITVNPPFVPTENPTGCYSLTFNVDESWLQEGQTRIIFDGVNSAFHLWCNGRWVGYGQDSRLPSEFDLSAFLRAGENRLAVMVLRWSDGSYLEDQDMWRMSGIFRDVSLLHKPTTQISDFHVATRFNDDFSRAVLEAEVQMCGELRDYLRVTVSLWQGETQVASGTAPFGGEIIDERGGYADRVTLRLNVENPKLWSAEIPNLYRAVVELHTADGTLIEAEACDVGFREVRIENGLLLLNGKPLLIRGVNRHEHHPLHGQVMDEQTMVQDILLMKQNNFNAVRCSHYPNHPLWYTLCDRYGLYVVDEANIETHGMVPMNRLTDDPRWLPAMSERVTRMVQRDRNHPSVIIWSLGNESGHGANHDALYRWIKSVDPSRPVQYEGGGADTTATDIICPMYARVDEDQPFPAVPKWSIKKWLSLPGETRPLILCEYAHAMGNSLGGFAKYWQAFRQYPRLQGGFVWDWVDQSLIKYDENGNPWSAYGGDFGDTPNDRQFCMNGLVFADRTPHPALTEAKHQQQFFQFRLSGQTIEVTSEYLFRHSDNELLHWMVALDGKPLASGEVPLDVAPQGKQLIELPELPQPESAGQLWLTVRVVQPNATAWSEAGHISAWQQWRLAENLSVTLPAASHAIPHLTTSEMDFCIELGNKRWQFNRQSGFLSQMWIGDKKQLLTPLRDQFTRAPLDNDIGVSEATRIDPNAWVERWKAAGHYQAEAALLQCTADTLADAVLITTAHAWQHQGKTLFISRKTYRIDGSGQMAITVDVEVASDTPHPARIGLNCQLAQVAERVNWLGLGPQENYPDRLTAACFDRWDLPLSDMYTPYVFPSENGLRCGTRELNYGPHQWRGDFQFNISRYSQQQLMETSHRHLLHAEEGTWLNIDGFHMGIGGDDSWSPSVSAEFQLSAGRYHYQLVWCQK

Cc1cc(C)nc(SCc2ccc(C(=O)NNC(=O)Nc3cccc(Cl)c3)cc2)n1
AC50 [1]: 3.65 µM (active)
IC50 [2]: 5.95 µM (active)
EC50 [3]: > 53 µM (inactive)
IC50 [4]: 11.6 µM (active)

c1ccc(-c2n[nH]c(-c3ccccn3)n2)cc1
CC50 [5]: > 40 µM (active)
AC50 [6]: 116 µM (active)

CSc1ccc(CN2CCN(C(=O)COc3ccc(C)cc3)CC2)cc1
IC50 (Beta-galactosidase): > 80 µM (inactive)

CCOCc1nnc(NC(=O)c2c(OC)cccc2OC)s1
IC50 [7]: 18 µM (inactive)

COc1ccc(-[n+]2cc(-c3ccc(OC(F)F)cc3)n3c2CCCCC3)cc1
AC50 (INS1): 2.14 µM (active)
IC50 (Protein Wnt-3a): 12.3 µM (active)

O=c1[nH]c(=O)n(-c2ccc(F)cc2)c2c1C(C(F)(F)F)(C(F)(F)F)NC(c1ccc(F)cc1)=N2
EC50 (BJ [8]): > 150 µM (not active)
EC50 (BJ [9]): 66.7 µM (inconclusive)
EC50 (BJ [10]): > 150 µM (not active)
EC50 [11]: 25.7 µM (active)
AC50 (INS1): 5.15 µM (active)
IC50 [4]: 13.2 µM (active)

Cc1cc(C(=O)Cn2nnc3ccccc3c2=O)c(C)n1-c1ccccc1F
CC50 [12]: 20.4 µM (active)
EC50 [13]: 10.1 µM (active)
EC50 [14]: 9.28 µM (active)
IC50 (Vero [15]): 6.16 µM (active)
IC50 (cells): 30.9 µM (active)

Cc1cc(C)c(C(N)=O)c(SCC(=O)c2cc(C)n(-c3cc(C)on3)c2C)n1
AC50 [16]: 0.942 µM (active)
AC50 [17]: 1.68 µM (active)
AC50 [18]: 0.332 µM (active)
IC50 (Protein Wnt-3a): 1.8 µM (active)

O=C(Nc1ccccc1SCC1CSc2nc3ccccc3c(=O)n21)c1cccc(Cl)c1 (centres undefined)
CC50 [12]: 24.7 µM (active)
IC50 (Vero [15]): 14.9 µM (active)
CC50 (Vero [19]): > 25 µM (active)
IC50 (cells): 10.3 µM (active)
